Results: PubChem BioAssay (NCI)
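Protocol summary: plate cells (96-well), add compound at 5 concentrations, incubate 48 h, interpolate endpoints linearly. TGI: concentration producing complete growth inhibition.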

How the values were obtained:
Experiment in all cases: growth of human tumour cells (NCI), 48 h
[1] = test system: OVCAR-5 ovarian
[2] = test system: COLO 205 colon
[3] = test system: UACC-62 melanoma
[4] = test system: HT29 colon
[5] = test system: SW-620 colon
[6] = test system: RXF 393 renal
[7] = test system: SK-OV-3 ovarian
[8] = test system: SK-MEL-5 melanoma
[9] = test system: SN12C renal
[10] = test system: RPMI-8226 leukemia
[11] = test system: HOP-92 NSCLC
[12] = test system: 786-0 renal
[13] = test system: SNB-75 CNS
[14] = test system: DU-145 prostate
[15] = test system: HS 578T breast
[16] = test system: MDA-MB-435
[17] = test system: EKVX NSCLC
[18] = test system: ACHN renal
[19] = test system: OVCAR-8 ovarian
[20] = test system: HCC-2998 colon
[21] = test system: NCI-H226 lung
[22] = test system: IGROV1 ovarian
[23] = test system: HL-60(TB) leukemia
[24] = test system: MOLT-4 leukemia
[25] = test system: U251 CNS
[26] = test system: MDA-MB-231 breast
[27] = test system: HOP-62 NSCLC
[28] = test system: SF-295 CNS
[29] = test system: UO-31 renal
[30] = test system: A549 NSCLC
[31] = test system: NCI-H522 lung
[32] = test system: LOX IMVI melanoma
[33] = test system: HCT-15 colon
[34] = test system: SF-268 CNS
[35] = test system: SNB-19 CNS
[36] = test system: MDA-N
[37] = test system: PC-3 prostate
[38] = test system: UACC-257 melanoma
[39] = test system: T-47D breast
[40] = test system: M14 melanoma
[41] = test system: TK-10 renal
[42] = test system: BT-549 breast
[43] = test system: K-562 leukemia
[44] = test system: OVCAR-4 ovarian
[45] = test system: CAKI-1 renal
[46] = test system: MCF7 breast
[47] = test system: NCI-H460 lung
[48] = test system: KM12 colon
[49] = test system: A498 renal
[50] = test system: SR leukemia
[51] = test system: SK-MEL-2 melanoma
[52] = test system: OVCAR-3 ovarian
[53] = test system: NCI/ADR-RES ovarian
[54] = test system: SK-MEL-28 melanoma
[55] = test system: HCT-116 colon
[56] = test system: NCI-H23 lung
[57] = test system: CCRF-CEM leukemia

NC(=O)C1=C(c2ccccc2)c2ccccc2C1=O
TGI [1]: 53.9 µM | TGI [2]: 38.5 µM | TGI [3]: 32.7 µM | TGI [4]: 34.2 µM | TGI [5]: 66.6 µM | TGI [6]: 35.9 µM | TGI [7]: 33.2 µM | TGI [8]: 33.6 µM | TGI [9]: 33.8 µM | TGI [10]: 72.4 µM | TGI [11]: 35.3 µM | TGI [12]: 30.5 µM | TGI [13]: 36.2 µM | TGI [14]: 31.3 µM | TGI [15]: 64.2 µM | TGI [16]: 65.8 µM | TGI [17]: 33.3 µM | TGI [18]: 23.5 µM | TGI [19]: 31 µM | TGI [20]: 29.5 µM | TGI [21]: 37.5 µM | TGI [22]: 30.6 µM | TGI [23]: 18.1 µM | TGI [24]: 14.9 µM | TGI [25]: 35.1 µM | TGI [26]: 32.4 µM | TGI [27]: 28.3 µM | TGI [28]: 41.9 µM | TGI [29]: 33.3 µM | TGI [30]: 37.6 µM | TGI [31]: 45.1 µM | TGI [32]: 21.4 µM | TGI [33]: 26.8 µM | TGI [34]: 44.3 µM | TGI [35]: 35.4 µM | TGI [36]: 38.1 µM | TGI [37]: 32.7 µM | TGI [38]: 27.1 µM | TGI [39]: 40.9 µM | TGI [40]: 36.8 µM | TGI [41]: 32.4 µM | TGI [42]: 30.9 µM | TGI [43]: > 100 µM | TGI [44]: 33.5 µM | TGI [45]: 30.4 µM | TGI [46]: 32.9 µM | TGI [47]: 33.4 µM | TGI [48]: 30.9 µM | TGI [49]: 60.8 µM | TGI [50]: 26.3 µM | TGI [51]: 39.7 µM | TGI [52]: 24.6 µM | TGI [53]: 38 µM | TGI [54]: 44.1 µM | TGI [55]: 34.9 µM | TGI [56]: 33.7 µM | TGI [57]: 7.71 µM
